# Test results: US20070264241A1, “Compounds for Enhanced Cancer Therapy” (priority 2004, published 2007)
# Like-named read-outs stand apart in the source and are kept apart here.
# Key:
# [1] = tested on: glioma cells expressing HSV-TK (S6) mixed with RFP cells; assay: Gap junction mediated cell death (bystander effect), MTT ratio A1:RFP/S6:RFP; type: cell-based, Rat; conditions: added to ganciclovir and 4-PB treatment
# Experimental: Mixtures of cell dones were treated with drugs as indicated. After 96 h (grey bar), 120 h (white bar) and 168 h (black bar) MTT tests from three samples were performed. The ratios of the MTT tests from TK negative and TK positve mixtures (A1:RFP/S6:RFP) are shown.
# Glioma cells with stable expression of green fluorescent protein (EGFP) and the herpes simplex virus thymidine kinase expressing gene HSV-TK in sense (S6) or in antisense (A1) were mixed with cells stably expressing the red fluorescent protein (RFP) (ratio 3:7 S6:RFP or A1:RFP). Ganciclovir, 4-phenylbutyrate and AGA were added 3 hrs after seeding the cells, except for AGA, which was added directly at seeding of cells. After 48 hours, cells were split and after 96, 120 and 168 hrs one each of the cell culture quadruplicates was used for MTT-test while one sample was employed for FACS analysis. After 144 h cells from the third of the quadruplicate were split again and the last quadruplicate sample was analyzed the following day (168 h).
# Proliferation of cultured glioma cells was assessed by 3-(4,5-dimethylthiazol-2-yl)-2,5-diphenyltetrazolium bromide (MTT, Sigma) assay. […] The absorbance at 570 nm (with reference at 650 nm) was measured using a microtiter plate spectrophotometer (Anthos HT III). The results were expressed as percentage of viable cells compared to the control sample of untreated cells (100%).
# [2] = tested on: gap junction communication between S6 and RFP cells; assay: Fluorescent dye transfer between glioma cells (S6 to RFP); type: cell-based, Rat; conditions: unlabeled recipient cells
# Experimental: S6 and RFP cells were plated each in two separate dishes with one dish of each cell type treated either with AGA or DMSO. S6 cells of both dishes were incubated with Calcein-AM and Dil. Cells were trypsinized and 85% RFP cells were mixed with 15% S6 cells and mixtures were co-cultured in two dishes where one contained cells pretreated with AGA (right panel). After 2.5 hours cells were incubated with Hoechst nuclear stain and Calcein-AM dye transfer from S6 cells to RFP cells was monitored.
# Glioblastoma cells were cultured on 35 mm petri dishes and in vitro labelled with 5 μM calcein-AM (acetomethylic ester) and 10 μM Dil (Molecular Probes) diluted in supplemented serum free medium DMEM/F12 and incubated for 30 min at 37° C. The cells were washed once with the same medium, trypsinized and suspended in the culture medium induding 10% FBS. The cells were pelleted by centrifugation at 1600 rpm for 1 minute and resuspended in fresh culture medium. The procedure was repeated twice. Following the second resuspension, the labelled cells were plated on top of unlabelled cells of the same origin. These cells were either pretreated with 4-PB at a concentration of 5 mM, or non-treated serving as a control. The labeled cells were then allowed to settle for 1 hour, followed by analyses using epifluorescence detection microscopy every 30 minutes for up to 6 hours. […]
# [3] = tested on: U87MG wt cells; assay: Cell killing effect of AZT, XTT assay, non-transduced cells; type: cell-based, human; conditions: 120 hours
# Experimental: Exponentially growing U87 wt and tomato kinase expressing cells were plated at a density of 2.000 cells/well in poly-L-lysine coated 96-well plates in 100 μl conditioned medium and incubated 37° C. in a humidified incubator with a gas phase of 5% CO2. After 24 hours, medium was replaced with medium containing varying concentrations of AZT. Hereafter, cells were exposed to drug conditioned media for 120 constitutive hours. The chemo resistance of cultured cells was monitored by the surviving cell fraction as a function of the drug concentration. Viability of cells was determined via the colorimetric XTT assay (XTT kit II—Roche, cat no. 1465015). Briefly, cell media was carefully removed and 100 μl fresh media and 50 μl XTT mix was added to each well. The absorbance at 450 and 690 nm was determined using an ELISA plate reader (Ascent, ThermoLab). The IC50 value (50% inhibition concentration) of the investigated compound was calculated as the mean value of each experiment using SigmaPlot® (Dyrberg Trading, DK).
# [4] = tested on: U87MG cells; assay: XTT cytotoxicity assay of phenylbutyrate and of nucleoside analogues with or without phenylbutyrate pre-incubation; type: cell-based, human; conditions: 120 hours drug exposure; for IC50: combinations: 24 h pre-incubation with 3.16 mM phenylbutyrate, read-out: IC50 U87MG; for sensitivity increase by phenylbutyrate pre-incubation: U87MG pre-incubated 24 h with phenylbutyrate
# Experimental: Briefly, cells were harvested by trypsinzation, stained by Tryphan Blue for cell viability counting, seeded in triplicate in 96-well plates (1.000-2.000 cells/well) where after media conditioned with a fixed concentration of phenyl butyrate (3.16 mM) were added to the plates followed by incubation for 24 hours at 37° C. and 5% CO2. Cell proliferation/cytotoxicity was assessed by adding the colour generating substrates of the Cell Proliferation kit II (XTT) from Roche (Cat. No. 1465015) and measuring absorbance at 450 nm and 690 nm with a Thermo Labsystems Multiscan Ascent reader.
# (§1) Cells were seeded at a density of 1.000-2.000 cells/well in 96-well plates. Cells were pre-incubated with 4-phenyl butyrate for 24 hours prior to drug exposure by adding media conditioned with phenyl butyrate at a fixed concentration (3.16 mM). Plated incubated for 24 hours (37° C., 5% CO2) where after media was discarded and replaced by media conditioned with various concentrations of nucleoside analogs (e.g. AZT), 200 μl/well. After 120 hours of drug exposure the experiments were terminated. Cell proliferation/cytotoxicity was assessed by adding the colour generating substrates of the Cell Proliferation kit II (XTT) from Roche (Cat. No. 1465015) and measuring absorbance at 450 nm and 690 nm with a Thermo Labsystems Multiscan Ascent reader.
# The data was corrected for background media-only absorbance where after the 50% growth inhibitory concentration—IC50 (the dose that inhibits cell growth by 50%) was calculated for each treatment.
# Briefly, cells were harvested by trypsinzation, stained by Tryphan Blue (Cambrex) for cell viability counting, seeded in triplicate in poly-L-lysine (PLL) (Sigma # P6282) coated 96-well plates (1.000-2.000 cells/well) where after media conditioned with a fixed concentration of phenyl butyrate (3.16 mM) was added to the plates followed by incubation for 24 hours at 37° C. and 5% CO2. Cell proliferation/cytotoxicity was assessed by adding the colour generating substrates of the
# as §1, with “cells/well in PLL coated 96-well plates.” for “cells/well in 96-well plates.”, “of nucleoside analogs; AZT (Sigma # A2169), AraC (Sigma # C6645), Cladribine (CdA) (Sigma #C4438), Gancidovir (GCV) (Sigma # G2536) and Gemcitabine (Orifarm), 200 μl/well.” for “of nucleoside analogs (e.g. AZT), 200 μl/well.”, “Ascent reader. he data was corrected for background media-only absorbance where after the 50% growth inhibitory concentration—IC50 (the dose that inhibits cell growth by 50%) was calculated for ach treatment.” for “Ascent reader.”
# [5] = tested on: U343MG cells; assay: XTT cytotoxicity assay of nucleoside analogues with or without phenylbutyrate pre-incubation; type: cell-based, human; conditions: for IC50: 120 hours drug exposure, combinations: 24 h pre-incubation with 3.16 mM phenylbutyrate
# Experimental: (§2) Cells were seeded at a density of 1.000-2.000 cells/well in 96-well plates. […] Plated incubated for 24 hours (37° C., 5% CO2) where after media was discarded and replaced by media conditioned with various concentrations of nucleoside analogs (e.g. AZT), 200 μl/well. After 120 hours of drug exposure the experiments were terminated. Cell proliferation/cytotoxicity was assessed by adding the colour generating substrates of the Cell Proliferation kit II (XTT) from Roche (Cat. No. 1465015) and measuring absorbance at 450 nm and 690 nm with a Thermo Labsystems Multiscan Ascent reader. The data was corrected for background media-only absorbance where after the 50% growth inhibitory concentration—IC50 (the dose that inhibits cell growth by 50%) was calculated for each treatment. Cells were seeded at a density of 1.000-2.000 cells/well in PLL coated 96-well plates. […] Plated incubated for 24 hours (37° C., 5% CO2) where after media was discarded and replaced by media conditioned with various concentrations of nucleoside analogs; AZT (Sigma # A2169), AraC (Sigma # C6645), Cladribine (CdA) (Sigma #C4438), Gancidovir (GCV) (Sigma # G2536) and Gemcitabine (Orifarm), 200 μl/well. After 120 hours of drug exposure the experiments were terminated. Cell proliferation/cytotoxicity was assessed by adding the colour generating substrates of the Cell Proliferation kit II (XTT) from Roche (Cat. No. 1465015) and measuring absorbance at 450 nm and 690 nm with a Thermo Labsystems Multiscan Ascent reader. he data was corrected for background media-only absorbance where after the 50% growth inhibitory concentration—IC50 (the dose that inhibits cell growth by 50%) was calculated for ach treatment.
# [6] = tested on: CL2:6 cells; assay: as above; type: cell-based; conditions: 120 hours drug exposure; for IC50: combinations: 24 h pre-incubation with 3.16 mM phenylbutyrate; for sensitivity improvement/increase by phenylbutyrate pre-incubation: CL2:6 pre-incubated 24 h with phenylbutyrate
# Experimental: as §2
# [7] = tested on: U87MG cells expressing tomato thymidine kinase; assay: Cell killing effect of AZT, XTT assay, tomato thymidine kinase transduced cells; type: cell-based, human; conditions: for IC50: U87MG tomato TK
# [8] = tested on: hGBM-1, hGBM-5 and hGBM-14 glioblastoma cultures; assay: MTT assay of cell viability and proliferation in primary glioblastoma cultures; type: cell-based, human; conditions: hGBM-1, hGBM-5, hGBM-14; 24 hours (FIG. 2)
# Experimental: Proliferation of cultured glioma cells was assessed by 3-(4,5-dimethylthiazol-2-yl)-2,5-diphenyltetrazolium bromide (MTT, Sigma) assay. MTT tetrazolium salt was dissolved in serum-free culture medium (0.5 mg/ml), added to the cells (150 μl/well) and incubated for 30 min at 37° C. Formazan dye, formed by viable cells, was solubilized in 300 μl of isopropanol. Aliquots (100 μl) of the solutions were transferred to 96-well microplates. The absorbance at 570 nm (with reference at 650 nm) was measured using a microtiter plate spectrophotometer (Anthos HT III). The results were expressed as percentage of viablecells compared to the control sample of untreated cells (100%).
# [9] = tested on: cell line transfected with Dm dNK variant; conditions: cited from earlier work
molecule,measurement,setting,value
"CC1(C)[C@@H](O)CC[C@]2(C)[C@H]3C(=O)C=C4[C@H]5C[C@@](C)(C(=O)O)CC[C@]5(C)CC[C@@]4(C)[C@]3(C)CC[C@@H]12 [AGA, 18α glycyrrhethinic acid]",bystander killing effect upon addition of gap junction inhibitor,[1],reduced
same,calcein transfer from Dil-positive donor cells,[2],inhibited
"Cc1cn([C@H]2C[C@H](N=[N+]=[N-])[C@@H](CO)O2)c(=O)[nH]c1=O [AZT, 3′-azido-3′-thymidine]",IC50,[3],7.43 mM
same,IC50,[4],6 mM
same,IC50,[5],56 µM
same,sensitivity improvement by phenylbutyrate pre-incubation,[5]; U343MG pre-incubated 24 h with phenylbutyrate,4.2 times
same,IC50,[6],0.573 mM
same,sensitivity improvement/increase by phenylbutyrate pre-incubation,[6],1.7 times
same,sensitivity increase of tomato TK expressing U87 cells compared to wt U87MG,[7],500 fold
same,IC50,"[7]; 120 hours, read-out: IC50 for tomato TK transduced cells",14.8 µM
same,IC50,"[7]; read-out: IC50 measured in FIG. 15B, approximate",~15 µM
"Nc1ccn([C@@H]2O[C@H](CO)[C@@H](O)[C@@H]2O)c(=O)n1 [AraC, cytidine-arabinoside]",IC50,[4],4.33 mM
same,sensitivity increase by phenylbutyrate pre-incubation,[4],3.5 times
"Nc1nc(Cl)nc2c1ncn2[C@H]1C[C@H](O)[C@@H](CO)O1 [CdA, 2-chloro-2′-deoxyadenosine]",IC50,"[4]; Homo sapiens, U-87 MG",0.00573 mM
same,sensitivity increase by phenylbutyrate pre-incubation,[4],2.3 times
"Nc1nc(O)c2ncn(COC(CO)CO)c2n1 [GCV, 9-[2-hydroxy-1-(hydroxymethyl)ethoxyl-methyl]-guanosine]",IC50,"[5]; Homo sapiens, U-343MG",104 µM
same,IC50,[6],3.36 mM
same,sensitivity improvement/increase by phenylbutyrate pre-incubation,[6],1.4 times
"Nc1ccn([C@@H]2O[C@H](CO)[C@@H](O)C2(F)F)c(=O)n1 [Gemcitabine, 2′,2′-difluorodeoxycytidine]",IC50,"[4]; Homo sapiens, U-87 MG",0.000248 mM
same,sensitivity increase by phenylbutyrate pre-incubation,[4],7.8 times
"O=C1CCc2c(ccc3ccccc23)O1 [Splitomicin, splitomicin]",antiproliferative potency compared with 4-PB (MTT),[8],less potent
CC(/C=C/C(=O)NO)=C\[C@@H](C)C(=O)c1ccc(N(C)C)cc1 [Trichostatin A],antiproliferative potency compared with 4-PB (MTT),[8],less potent
CCCC(=O)[O-].[Na+] [sodium butyrate],antiproliferative potency compared with 4-PB (MTT),[8],less potent
CCCC(CCC)C(=O)O [valproic acid],antiproliferative potency compared with 4-PB (MTT),[8],less potent
"B5: mutant form of the Drosophila melanogaster Dm dNK deoxyribonucleoside kinase (SEQ ID NO 5) (protein, Drosophila melanogaster) MAEAASCARKGTKYAEGTQPFTVLIEGNIGSGKTTYLNHFEKYKNDICLLTEPVEKWRNVNGVNLLELMYKDPKKWAMPFQSYATLTMLQSHTAPTNKKLKIMERSIFSARYCFVENMRRNGSLEQGMYNTLEEWYKFIEESIHVQADLIIYLRTSPEVAYERIRQRARSEESCVPLKYLQELHELHEDWLIHQRRPQSCKVLVLDADLDLENIGTEYQRSESSIFDAISSNQQPSPVPVSPSKRQRVAR",degree of activation for gemcitabine relative to wild type Dm dNK,[9],approximately 50 times
